Test results reported in patent publication US8809341B2, “2,4-pyrimidinediamine compounds and uses as anti-proliferative agents” (Rigel Pharmaceuticals, Inc., priority 2003, dated 2014).
pIC50: −log10 of the molar value. Read-outs that look alike come from different tables or passages of the source.

Assays:
Assay type in all cases: cell-based
A549 cells = test: in vitro antiproliferation assay, A549 (lung); conditions: in vitro antiproliferation, A549 (lung) cells
Outline: (§1)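 IC50 values came from standard antiproliferation testing in cultured tumour cells; the A549 and H1299 lines are of lung origin.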

HCT116 = test: in vitro antiproliferation assay, HCT116 (colon)
Protocol: The IC50 values of various compounds against a various different tumor cell lines were determined using standard in vitro antiproliferation assays. The tumor cell lines tested were as follows: A549 (lung); H1299 (lung), ACHN (kidney/p53 wt), CAKI (renal cell carcinoma), NCI-H460 (lung); HCT116 (colon/p53w0; HELA (cervix/p53 wt), HUH7 (liver/p53 wt), HUVEC (primary endothelial), LNCAP (prostate), HT-29 (colon); MCF-7 (breast); MCF-7 (breast/ER positive), MDA MB435S (breast); MDA MB231 (breast/ER negative), DU145 (prostate); BxPC-3 (pancreatic); SKOV-3 (ovarian); HepG2 (hepatic), NDHF primary normal human dermal fibroblast), SKMEL28 (breast/p53mut), SKMEL5 (breast/p53 wt), U20S (bone) and PC3 (prostate). […] A blank indicates the specified compound was not tested against the specified cell line.
Many of the compounds were tested against other cell lines. Their activity is reported in TABLE 15, below, where +”, “−”, “−/+” or “+/−” values are as described for TABLES 1-14. Where the cell line includes a value in a parenthetical, the value indicates the seeding density at which the assay was performed

H1299 cells = test: in vitro antiproliferation assay, H1299 (lung); conditions: Table 5; in vitro antiproliferation, H1299 (lung) cells
Outline: as §1

[1] = Table 4, compounds with no designated stereochemistry tested as racemate
[2] = HCT116 (colon), read-out: HCT116
[3] = Table 7, in vitro antiproliferation, colon cells, read-out: HTC116

Structure (SMILES)	pIC50 (HCT116; [2])	pIC50 (A549 cells; Table 7)	pIC50 (HCT116; [3])	also measured
CNC(=O)COc1cccc(Nc2ncc(F)c(Nc3ccc4c(c3)NC(=O)[C@H](C)O4)n2)c1 [compound 300]	≥ 4.70			pIC50 (A549 cells; [1]): ≥ 4.70
COc1cc(Nc2ncc(F)c(Nc3ccc4c(c3)NC(=O)C(C)(C)O4)n2)cc(OC)c1 [compound 305]	≥ 4.70			pIC50 (A549 cells; [1]): ≥ 4.70
COc1c(Cl)cc(Nc2ncc(F)c(Nc3ccc4c(c3)NC(=O)C(C)(C)O4)n2)cc1Cl [compound 307]	≥ 4.70			pIC50 (A549 cells; [1]): ≥ 4.70
COc1cc(Nc2ncc(F)c(Nc3ccc4c(c3)NC(=O)C(C)(C)O4)n2)cc(C(F)(F)F)c1 [compound 309]	≥ 4.70			pIC50 (A549 cells; [1]): ≥ 4.70
Cc1cc(C)cc(Nc2ncc(F)c(Nc3ccc4c(c3)NC(=O)C(C)(C)O4)n2)c1 [compound 310]	≥ 4.70			pIC50 (A549 cells; [1]): ≥ 4.70
CC1(C)Oc2ccc(Nc3nc(Nc4cccc(O)c4)ncc3F)cc2NC1=O [compound 356]	< 4.70			
Cc1cc(Nc2ncc(F)c(Nc3ccc4c(c3)NC(=O)C(C)(C)O4)n2)cc(Cl)c1O [compound 358]	> 4.70			
CC(=O)N1CCN(c2ccc(Nc3ncc(F)c(Nc4ccc5c(n4)NC(=O)CO5)n3)cc2)CC1 [compound 419]	≥ 4.70			
CC(=O)N1CCN(c2ccc(Nc3ncc(F)c(Nc4ccc5c(n4)NC(=O)C(C)(C)O5)n3)cc2)CC1 [compound 432]	≥ 4.70			
CN1CCN(c2ccc(Nc3ncc(F)c(Nc4ccc5c(n4)NC(=O)CO5)n3)cc2)CC1 [compound 435]	≥ 4.70			
CN1CCN(c2ccc(Nc3ncc(F)c(Nc4ccc5c(n4)NC(=O)C(C)(C)O5)n3)cc2)CC1 [compound 436]	≥ 4.70			
O=C(COc1cccc(Nc2ncc(F)c(Nc3ccc4c(c3)OCCO4)n2)c1)N1CCNCC1 [compound 497]	< 4.70			pIC50 (A549 cells; Table 5): ≥ 4.70
NC(=O)COc1cccc(Nc2ncc(F)c(Nc3ccc4c(c3)OCCO4)n2)c1 [compound 504]	≥ 4.70			pIC50 (A549 cells; Table 5): ≥ 4.70
COc1cc(Nc2ncc(F)c(Nc3ccc4c(c3)OCCO4)n2)cc(OC)c1OC [compound 506]	< 4.70			pIC50 (A549 cells; Table 5): ≥ 4.70
Oc1c(Cl)cc(Nc2ncc(F)c(Nc3ccc4c(c3)OCCO4)n2)cc1Cl [compound 507]	< 4.70			pIC50 (A549 cells; Table 5): ≥ 4.70
Cc1cc(C)cc(Nc2ncc(F)c(Nc3ccc4c(c3)OCCO4)n2)c1 [compound 527]	≥ 4.70			pIC50 (A549 cells; Table 5): ≥ 4.70
Cc1cc(Nc2ncc(F)c(Nc3ccc4c(c3)OCCO4)n2)cc(C)c1Cl [compound 528]	≥ 4.70			pIC50 (A549 cells; Table 5): ≥ 4.70
OCc1cc(CO)cc(Nc2ncc(F)c(Nc3ccc4c(c3)OC(F)(F)C(F)(F)O4)n2)c1 [compound 534]	≥ 4.70			pIC50 (H1299 cells): ≥ 4.70
OCCOc1cccc(Nc2ncc(F)c(Nc3ccc4c(c3)OCCCO4)n2)c1 [compound 581]	≥ 4.70			pIC50 (A549 cells; Table 5): ≥ 4.70
CC(C)Oc1cccc(Nc2nc(Nc3ccc4oc(C(=O)N5CCOCC5)cc4c3)ncc2F)c1 [compound 625]		≥ 4.70	≥ 4.70	
O=C(c1cc2cc(Nc3ncc(F)c(Nc4ccc5c(c4)OCCO5)n3)ccc2o1)N1CCOCC1 [compound 626]	≥ 4.70	> 4.70	≥ 4.70	
CNC(=O)c1cc2cc(Nc3ncc(F)c(Nc4ccc5c(c4)OCCO5)n3)ccc2o1 [compound 629]	≥ 4.70	≥ 4.70	≥ 4.70	
O=C(NCCO)c1cc2cc(Nc3ncc(F)c(Nc4ccc5c(c4)OCCO5)n3)ccc2o1 [compound 631]	≥ 4.70	≥ 4.70	≥ 4.70	
O=C(c1cc2cc(Nc3ncc(F)c(Nc4ccc5c(c4)OCCO5)n3)ccc2o1)N1CCNCC1 [compound 632]	≥ 4.70	≥ 4.70	≥ 4.70	
O=C(c1cc2cc(Nc3ncc(F)c(Nc4cccc(O)c4)n3)ccc2o1)N1CCNCC1 [compound 633]	≥ 4.70	≥ 4.70	≥ 4.70	
COC(=O)c1cc2cc(Nc3ncc(F)c(Nc4cccc(O)c4)n3)ccc2o1 [compound 636]	< 4.70	≥ 4.70	< 4.70	
CCOC(=O)c1cc2cccc(Nc3ncc(F)c(Nc4ccc5c(c4)OCCO5)n3)c2[nH]1 [compound 647]	≥ 4.70	≥ 4.70	≥ 4.70	
CCOC(=O)c1cc2cccc(Nc3ncc(F)c(Nc4cccc(O)c4)n3)c2[nH]1 [compound 648]		≥ 4.70	≥ 4.70	
